In PMC12184417, “CDADC1 is a vertebrate-specific dCTP deaminase that metabolizes gemcitabine and decitabine to prevent cellular toxicity” (Proceedings of the National Academy of Sciences of the …, 2025):

T1: DCTD (Homo sapiens, UniProt P32321)
T1 sequence (P32321 1-178): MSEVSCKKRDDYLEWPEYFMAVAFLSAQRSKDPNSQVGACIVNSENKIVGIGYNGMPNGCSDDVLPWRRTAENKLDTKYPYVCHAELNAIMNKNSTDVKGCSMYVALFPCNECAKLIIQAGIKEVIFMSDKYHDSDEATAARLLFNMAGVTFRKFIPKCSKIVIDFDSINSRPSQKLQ


Assays:
DCTD = target: T1, DCTD; assay: thin-layer chromatography of dCMP deamination; assay type: biochemical; conditions: allosteric activator; substrate dCMP; 37 C, 15 min; 50 mM Tris-HCl pH 7.5
purified protein = substrate: Nc1ccn([C@H]2C[C@H](O)[C@@H](COP(=O)(O)OP(=O)(O)OP(=O)(O)O)O2)c(=O)n1; assay: purified protein; assay type: biochemical, Homo sapiens; conditions: 50 mM Tris-HCl pH 7.5, 200 ng enzyme, sigmoidal fit slightly better than Michaelis-Menten

| Molecule | thin-layer chromatography of dCMP deamination (DCTD) | Km (purified protein) [µM] |
| --- | --- | --- |
| Nc1ccn([C@H]2C[C@H](O)[C@@H](COP(=O)(O)OP(=O)(O)OP(=O)(O)O)O2)c(=O)n1 [dCTP] | DCTD converted dCMP to dUMP, with activity enhanced by the allosteric activator dCTP |  |
| CDADC1 (Homo sapiens) (protein, two deaminase domains CDD1 and CDD2) MKEAGQMQNLESARAGRSVSTQTGSMTGQIPRLSKVNLFTLLSLWMELFPAEAQRQKSQKNEEGKHGPLGDNEERTRVSTDKRQVKRTGLVVVKNMKIVGLHCSSEDLHAGQIALIKHGSRLKNCDLYFSRKPCSACLKMIVNAGVNRISYWPADPEISLLTEASSSEDAKLDAKAVERLKSNSRAHVCVLLQPLVCYMVQFVEETSYKCDFIQKITKTLPDANTDFYYECKQERIKEYEMLFLVSNEEMHKQILMTIGLENLCENPYFSNLRQNMKDLILLLATVASSVPNFKHFGFYRSNPEQINEIHNQSLPQEIARHCMVQARLLAYRTEDHKTGVGAVIWAEGKSRSCDGTGAMYFVGCGYNAFPVGSEYADFPHMDDKQKDREIRKFRYIIHAEQNALTFRCQEIKPEERSMIFVTKCPCDECVPLIKGAGIKQIYAGDVDVGKKKADISYMRFGELEGVSKFTWQLNPSGAYGLEQNEPERRENGVLRPVPQKEEQHQDKKLRLGIH |  | 288.5 ± 30.6 |
